Source: patent publication US7303763B2, “Compositions for conjugated estrogens and associated methods” (Watson Laboratories, Inc., priority 2001, dated 2007)

Assay: Accelerated stability study of coated 0.625 mg conjugated estrogens tablets (active compounds and degradation products per USP, LOD)
Assay type: physicochemical
Settings: for Change: initial % found versus 40c
From the text: (§1) Stability was monitored under different storage conditions.
as §1

[1] = acrylic-coated 0.625 mg tablets, Lot EXPWS 1251, 10% Eudragit/RS:RL (2:1), Initial
[2] = acrylic-coated tablets, Lot EXPWS 1251, 40c, 75% RH/1m
[3] = acrylic-coated tablets, Lot EXPWS 1251, 40c, 75% RH/2m
[4] = acrylic-coated tablets, Lot EXPWS 1251, 40c, 75% RH/3m
[5] = acrylic-coated tablets, Lot EXPWS 1251, 50c, 75% RH/2 wks
[6] = acrylic-coated tablets, Lot EXPWS 1251, 75% RH/3m
[7] = sugar-coated 0.625 mg tablets, Lot EXPWS 1246, Initial
[8] = sugar-coated tablets, Lot EXPWS 1246, 40c, 75% RH/1 mnth
[9] = sugar-coated tablets, Lot EXPWS 1246, 40c, 75% RH/2 mnth
[10] = sugar-coated tablets, Lot EXPWS 1246, 50c, 75% RH/2 wks

Compound | % Found [1] | % Found [2] | % Initial [2] | % Found [3] | % Initial [3] | % Found [4] | % Initial [4] | % Found [5] | % Initial [5] | Change [6] | % Found [7] | % Found [8] | % Initial [8] | % Found [9] | % Initial [9] | % Found [10] | % Initial [10]
C[C@]12CC[C@@H]3c4ccc(O)cc4CC[C@H]3[C@@H]1CC[C@@H]2O [17b-estradiol] | 1.26% | 0.90% | 71.4% | 0.96% | 76.2% | 0.88% | 69.8% | 1.11% | 88.1% | 0.38 | 0.60% | 0.56% | 93.3% | 0.62% | 103.3% | 0.59% | 98.3%
C[C@]12CC[C@H]3C(=CCc4cc(O)ccc43)[C@@H]1CC[C@H]2O [17a-dihydroequilin] | 17.9% | 17.9% | 100.0% | 17.6% | 98.3% | 18.1% | 101.1% | 17.4% | 97.2% | −0.2 | 14.0% | 14.3% | 102.1% | 14.5% | 103.6% | 14.5% | 103.6%
C[C@]12CC[C@H]3C(=CCc4cc(O)ccc43)[C@@H]1CC[C@@H]2O [17b-dihydroequilin] | 2.3% | 2.6% | 108.7% | 2.4% | 104.3% | 2.4% | 104.3% | 2.2% | 95.7% | −0.1 | 1.3% | 1.3% | 100.0% | 1.4% | 107.7% | 1.3% | 100.0%
C[C@]12CCC3=C(CCc4cc(O)ccc43)[C@@H]1CCC2=O [d8,9 dehydroesterone] | 4.15% | 4.13% | 99.5% | 4.02% | 96.9% | 3.91% | 94.2% | 4.07% | 98.1% | 0.24 | 4.72% | 4.68% | 99.2% | 4.53% | 96.0% | 4.91% | 104.0%
C[C@]12CC[C@@H]3c4ccc(O)cc4CC[C@H]3[C@@H]1CC[C@H]2O [17a-estradiol] | 4.6% | 4.7% | 102.2% | 4.7% | 102.2% | 4.8% | 104.3% | 4.5% | 97.8% | −0.2 | 3.8% | 3.9% | 102.6% | 3.9% | 102.6% | 3.8% | 100.0%
C[C@]12CC[C@H]3C(=CCc4cc(O)ccc43)[C@@H]1CCC2=O [Equilin] | 27.3% | 27.1% | 99.3% | 26.5% | 97.1% | 26.4% | 96.7% | 26.5% | 97.1% | 0.9 | 22.7% | 23.0% | 101.3% | 23% | 101.3% | 23.3% | 102.6%
C[C@]12CCc3c(ccc4cc(O)ccc34)[C@@H]1CCC2=O [Equilenin] | 2.2% | 2.3% | 104.5% | 2.6% | 118.2% | 3.0% | 136.4% | 2.5% | 113.6% | −0.8 | 2.6% | 2.8% | 107.7% | 2.8% | 107.7% | 2.8% | 107.7%
C[C@]12CCc3c(ccc4cc(O)ccc34)C1CCC2O (stereo partly drawn) [17b-dihydroequilenin] | 0.77% | 0.97% | 126.0% | 0.86% | 111.7% | 0.68% | 88.3% | 0.67% | 87.0% | 0.09 | 0.56% | 0.58% | 103.6% | 0.44% | 78.6% | 0.63% | 112.5%
C[C@]12CCc3c(ccc4cc(O)ccc34)[C@@H]1CC[C@H]2O [17a-dihydroequilenin] | 1.65% | 2.03% | 123.0% | 2.34% | 141.8% | 2.82% | 170.9% | 1.79% | 108.5% | −1.17 | 2.05% | 2.16% | 105.4% | 2.2% | 107.3% | 2.19% | 106.8%
